Measured values from patent publication US20060167106A1, “Compounds acting at the centrosome” (priority 2004, published 2006).
Entries after “also recorded” stand apart in the source; their conditions may differ.

Assays:
[1] = test system: U937 (histiocytic lymphoma); experiment: Viability and cell growth of U937 cells; format: cell-based; details: for Total cells (×10^6): U937, 36 hour treatment
Method: (§1) The viability and cell growth of two lymphoma cell lines, CRL-2261 (non-Hodgkin's lymphoma) and U937 (histiocytic lymphoma), were assayed following treatment with Compound 1 for 36-48 hours. Viability of the cells was determined using a kit from Molecular Probes (Eugene, Oreg.) that labels live cells green (calcein AM) and dead cells red (ethidium homodimer) according to manufacturer's instructions. Fluorescence of calcein and ethidium homodimer in cells was imaged using standard filters for FITC and Texas Red, respectively, with the Nikon TE300 microscope/digital imaging system.

CV-1 cells [2] = experiment: α-tubulin immunofluorescence, microtubule network in CV-1 cells; format: cell-based, monkey; details: 0.5 μM, 5 hours
Method: Before treatment, cells were grown in chamber slides for 24 hours in culture media containing 90% Eagle's MEM and 10% BCS. […] Cells were then washed in PBS and fixed in ice-cold 50/50 methanol/acetone for 10 minutes. […] Sigma, St. Louis, Mo.). Subsequently, slides were washed in PBS, incubated with an AlexaFluoR488-conjugated anti-mouse antibody (Molecular Probes, Eugene, Oreg.) at 37° C. for 30 minutes.

Hsp70 = Hsp70 Western blotting in MDA-435 cells; format: cell-based; details: 0.5 μM; for percentage change in Hsp70 expression relative to DMSO control: normalized to background and GAPDH
Method: Calculations of the percentage changes were made by using the automated band analysis tools of the Kodak 1D (v.3.6.3) program. Band intensities were normalized to background and GAPDH.
MDA-435 breast cancer cells were grown in 100 mm plastic-tissue culture dishes and treated for 6 and 24 hours with 0.5 μM Taxol, Compound 1, Taxol+Compound 1, MG132, ALLN, or DMSO. After treatment, cells were washed in PBS and cell lysates were prepared by adding 100 μL of lysis buffer, which contained 20 mM Tris-HCl (pH 7.5), 150 mM NaCl, 1 mM Na2EDTA, 1 mM EGTA, 1% Triton, 2.5 mM sodium pyrophosphate, 1 mM β-glycerophosphate, 1 mM Na3VO4 and 1 μg/ml leupeptin (Cell Signaling Technology, Beverly, Mass.) supplemented with 1 mM PMSF (Sigma, St. Louis, Mo.) immediately before use, on ice for 1 hour. After scraping, the lysates were cleared by centrifugation at 13,000 RPM for 10 minutes at 4° C. Protein content was determined using a Bradford assay and bovine serum albumin as a standard (Bio-Rad Laboratories, Hercules, Calif.). Samples were solubilized by boiling in SDS sample buffer and subjected to SDS-PAGE. The proteins were subsequently transferred to a PVDF membrane (Bio-Rad, Hercules, Calif.). After blocking with 5% nonfat milk in TBS for 1 hour, the blots were incubated with a mouse monoclonal anti-Hsp70 antibody, which is specific for the inducible form of Hsp70 (Clone C92F3A-5, 1:1000 dilution, Stressgen Biotechnologies Corp., Victoria, B.C., Canada) or a rabbit polyclonal anti-GAPDH antibody (1:2000 dilution, Abcam, Cambridge, Mass.) for 2 hours at room temperature. The horseradish-peroxidase-conjugated secondary antibodies, anti-mouse horse radish peroxidase, (1:2000, Bio-Rad, Hercules, Calif.) and goat anti-rabbit polyclonal horse radish peroxidase (1:2000, Abcam, Cambridge, Mass.)) were diluted in blocking buffer and incubated with the blot for 1 hour at room temperature. The secondary antibodies were detected by enhanced chemiluminescence (ECL, Amersham Biosciences, Piscataway, N.J.) and imaged using a Kodak 440 Image Station.

CHO cells = experiment: Oregon Green 488-Taxol localization in CHO cells; format: cell-based, Chinese hamster; details: 0.5 μM Compound 1
Method: A fluorescent compound, Oregon Green 488-Taxol (Molecular Probes/Invitrogen), was utilized to determine the distribution of Taxol in CHO cells (FIG. 33). In addition, the targeting of fluorescent Taxol to centrosomes was examined in Compound 1-treated cells (FIG. 34). Non-transfected wild-type CHO cells and HeLa cells were cultured in 2-well chambered cover-slips for 24-48 hours before treatment. Oregon Green 488-Taxol stock solution was made with DMSO. […] Oregon Green 488-Taxol fluorescence in living cells or fixed cells was imaged using a standard filter for FITC with the Nikon TE300 microscope/digital imaging system.

[3] = test system: CRL-2261 (non-Hodgkin's lymphoma); experiment: Viability and cell growth of CRL-2261 cells; format: cell-based; details: for Total cells (×10^6): CRL-2261, 36 hour treatment; for Total cells (×10^7): CRL-2261, 48 hour treatment
Method: as §1

CV-1 cells [4] = experiment: Actin (phalloidin) fluorescence in CV-1 cells; format: cell-based, monkey; details: 0.5 μM, 6 hours
Method: CV-1 cells were obtained from ATCC and grown in chamber slides (Labtek, Campbell, Calif.) for 24 hours in 90% Eagle's MEM with 10% BCS before treatment. […] Cells were then washed in PBS and fixed in 3.7% formaldehyde solution in PBS for 10 minutes at room temperature. Cells were washed again twice in PBS for 5 minutes before incubation with AlexaFluoR488 conjugated phalloidin (1:40 dilution; Molecular Probes, Eugene, Oreg.) and 1% bovine serum albumin (BSA) in PBS at 37° C. for 30 minutes.

CV-1 cells [5] = experiment: Cell morphology, time-lapse imaging of CV-1 cells; format: cell-based, monkey; details: 500 nM
Method: CV-1 cells and CHO cells were previously cultured in 2-well chambered cover-slips for 48 hours and incubated in 15 mM HEPES buffer-containing Ham's F-12/DMEM medium with different compounds. The cells were imaged using phase contrast settings with the Nikon TE300 microscope/digital imaging system. The cells were imaged ‘simultaneously’ under control of MetaVue software by capturing frames for cells from different conditions at the same time period using a motorized automated XYZ stage.
[…] […] A very low concentration of Taxol (10 nM) was used.

MCF-7 cells = experiment: α-tubulin-YFP localization in MCF-7 cells; format: cell-based; details: 40 hours after treatment with 500 nM for 25 hours
Source text: MDA-435, MCF-7, CV-1, HT-29 and MCF-10A cell lines were maintained with 10% FBS-containing DMEM media. […] Living cells were examined using a fluorescent microscope for α-tubulin-YFP expression. Cells in single colonies that had microtubules labeled with tubulin-YFP were lifted and expanded using G418-containing media.

SMILES: CN(NC(=O)CC(=O)NN(C)C(=S)c1ccccc1)C(=S)c1ccccc1 [Compound 1]
- cell death of U937 cells ([1]; 36 hours): less affected
- Total cells (×10^6) ([1]; 500 nM): 2.13 ×10^6
- Total cells (×10^6) ([1]; 5000 nM): 2.40 ×10^6
- organization of the microtubule network (CV-1 cells [2]): dramatic alterations in the cells' microtubule network; also recorded: loss of centrosomal enucleated microtubules, clearing up of microtubules from the cytosol, and coiling up of microtubules around the nucleus and at the cell periphery; also recorded: disruption of the microtubule network
- induction of Hsp70 expression (Hsp70; 6 and 24 hours): strongly induced Hsp70 expression
- percentage change in Hsp70 expression relative to DMSO control (Hsp70; 6 hours of treatment): 980%
- percentage change in Hsp70 expression relative to DMSO control (Hsp70; 24 hours of treatment): 2121%
- effect on the accumulation of Taxol (Oregon Green 488-Taxol) at centrosomes (CHO cells): no effect on the accumulation of Taxol at centrosomes
- cell death / growth inhibition of CRL-2261 cells ([3]; 36-48 hours): significant cell death of CRL-2261 cells; also recorded: more significantly inhibited than growth of U937 cells
- Total cells (×10^6) ([3]; 500 nM): 0.69 ×10^6
- Total cells (×10^6) ([3]; 5000 nM): 0.75 ×10^6
- Total cells (×10^7) ([3]; 0.5 nM): 1.32 ×10^7
- Total cells (×10^7) ([3]; 5 nM): 1.11 ×10^7
- Total cells (×10^7) ([3]; 50 nM): 0.26 ×10^7
- Total cells (×10^7) ([3]; 500 nM): 0.14 ×10^7
- Total cells (×10^7) ([3]; 5000 nM): 0.16 ×10^7
- organization of the actin network (CV-1 cells [4]): dramatic alterations in the cells' actin cytoskeletal networks; also recorded: induced the disappearance of cytosolic actin bundles
- changes in the shape of the cell (CV-1 cells [5]; CV-1 cell, 4 hours): shrinkage of cell body relative to FIG. 19D
- changes in the shape of live cells (CV-1 cells [5]; CV-1 cells, 4 hours): shrinkage of cell bodies
- beginning of cell shrinkage after treatment (CV-1 cells [5]; non-transfected CV-1 cells): 1.5 h
- accumulation of α-tubulin-YFP at centrosome-like structures (MCF-7 cells): accumulation of α-tubulin-YFP at centrosome-like structures
